Results taken from patent US10570168B2, “2′ and/or 5′ amino-acid ester phosphoramidate 3′-deoxy adenosine derivatives as anti- cancer compounds” (NuCana plc, priority 2014, dated 2020).

Assays:
Experiment in all cases: Solid tumour and haematological malignancy assay (CellTiterGlo)
Assay type in all cases: cell-based
CCRFCEM = settings: Homo sapiens, CCRF-CEM, 72 hr
How it was run: (§1)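 CTG luminescence read-out of viability after 3 days of compound exposure; duplicates, standard growth conditions, 0.5% DMSO final.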

HL-60 = settings: Homo sapiens, HL-60, 72 hr
How it was run: as §1

K562 = settings: Homo sapiens, K562, 72 hr
How it was run: as §1

MiaPaCa-2 = settings: Homo sapiens, MIA PaCa-2, Mia-Pa-Ca-2, 72 hr
How it was run: as §1

HT29 = settings: Homo sapiens, HT-29, HT29, 72 hr
How it was run: as §1

MCF7 = settings: Homo sapiens, MCF7, MCF-7, 72 hr
How it was run: as §1

KG-1 = settings: Homo sapiens, KG-1, 72 hr
How it was run: as §1

HEL92.1.7 = settings: Homo sapiens, HEL.92.1.7, 72 hr
How it was run: as §1

HepG2 = settings: Homo sapiens, HepG2, 72 hr
How it was run: as §1

THP-1 = settings: Homo sapiens, THP-1, 72 hr
Procedure: (§2) In vitro viability assay were performed to assess the effects of compounds on cell viability in selected cell lines over 72 hr using the CellTiterGlo (CTG, Promega-G7573) assay. The tests were performed in duplicates with treatment of compounds at 9 points, 3.16 folds titration in 96 well plates over ˜72 hr. The compound starting concentrations were […]. Cell viability assay using CellTiterGlo in 96-well plate were performed. Compound treatment 72 hrs, standard growth conditions, duplicates. Compounds were dissolved to 40 mM with thawed […]. Compounds were serially diluted at 3.16 fold in thawed DMSO, and warmed to 37° C. before being dissolved in media ([…]). After compounds were dissolved in media, media containing compounds were warmed to 37° C. in incubator and then compounds in media were added to cell plates ([…]) in duplicates. The compounds' final concentrations were from […] to 19.9 nM. All compound solubilities were checked and recorded again, then the plates were transferred to CO2 tissue culture incubator immediately and incubated for 3 days. DMSO final concentration is 0.5%.

HS445 = settings: Hs 445, HS445, 72 hr
Procedure: as §2

RL = settings: Homo sapiens, 72 hr
Procedure: as §2

MOLT-4 = settings: Homo sapiens, MOLT-4, 72 hr
Procedure: as §2

BxPC-3-Luc = settings: BxPC-3-Luc, 72 hr; read-out: EC50 (absolute EC50)
Procedure: as §2

NCI-H929 = settings: Homo sapiens, NCI-H929, 72 hr
Procedure: as §2

Z138 = settings: Homo sapiens, Z-138, 72 hr
Procedure: as §2

SW620 = settings: Homo sapiens, SW-620, SW620, 72 hr
Procedure: as §2

MV4-11 = settings: Homo sapiens, MV4-11, 72 hr
Procedure: as §2

RPMI-8226 = settings: Homo sapiens, RPMI-8226, 72 hr
Procedure: as §2

EC50 (CCRFCEM; read-out: EC50 (absolute EC50)): 15 to 100 µM | EC50 (HL-60; read-out: EC50 (absolute EC50)): 15 to 100 µM | EC50 (K562; read-out: EC50 (absolute EC50)): > 100 µM | EC50 (MiaPaCa-2; read-out: EC50 (absolute EC50)): > 100 µM | EC50 (HT29; read-out: EC50 (absolute EC50)): > 100 µM | EC50 (MCF7; read-out: EC50 (absolute EC50)): > 100 µM | EC50 (KG-1; read-out: EC50 (absolute EC50)): > 100 µM | EC50 (HEL92.1.7; read-out: EC50 (absolute EC50)): 5 to 15 µM | EC50 (HepG2; read-out: EC50 (absolute EC50)): > 100 µM | EC50 (THP-1; read-out: EC50 (absolute EC50)): > 100 µM | EC50 (HS445; read-out: EC50 (absolute EC50)): > 100 µM | EC50 (RL; read-out: EC50 (absolute EC50)): 15 to 100 µM | EC50 (MOLT-4; read-out: EC50 (absolute EC50)): > 100 µM | EC50 (BxPC-3-Luc): > 100 µM | EC50 (NCI-H929; read-out: EC50 (absolute EC50)): 5 to 15 µM | EC50 (Z138; read-out: EC50 (absolute EC50)): 15 to 100 µM | EC50 (SW620; read-out: EC50 (absolute EC50)): > 100 µM | EC50 (MV4-11; read-out: EC50 (absolute EC50)): 15 to 100 µM | EC50 (RPMI-8226; read-out: EC50 (absolute EC50)): > 100 µM
Compound: Nc1nc(Cl)nc2c1ncn2[C@@H]1O[C@H](CO)C[C@H]1O [2-Cl-cordycepin, 3′-deoxy-2-chloroadenosine, reference compound]
Emax (CCRFCEM; Table VII, read-out: MI %): 98.1% | Emax (HL-60; Table VII, read-out: MI %): 84.4% | Emax (K562; Table VII, read-out: MI %): 37.6% | Emax (MiaPaCa-2; Table VII, read-out: MI %): 17.7% | Emax (HT29; Table VII, read-out: MI %): 4.4% | Emax (MCF7; Table VII, read-out: MI %): -0.9% | Emax (KG-1; Table VII, read-out: MI %): 4.3% | Emax (HEL92.1.7; Table VII, read-out: MI %): 94.3% | Emax (HepG2; Table VII, read-out: MI %): 31.1% | Emax (THP-1; Table VII, read-out: MI %): 24.1% | Emax (HS445; Table VII, read-out: MI %): -1.9% | Emax (RL; Table VII, read-out: MI %): 84.1% | Emax (MOLT-4; Table VII, read-out: MI %): 80.4% | Emax (NCI-H929; Table VII, read-out: MI %): 93.6% | Emax (Z138; Table VII, read-out: MI %): 99.5% | Emax (SW620; Table VII, read-out: MI %): 36.3% | Emax (MV4-11; Table VII, read-out: MI %): 100% | Emax (RPMI-8226; Table VII, read-out: MI %): 29%
